{"source": "ChEMBL document CHEMBL1269004", "about": "“Synthesis of a 6-methyl-7-deaza analogue of adenosine that potently inhibits replication of polio and dengue viruses” (J Med Chem, 2010)", "assay_type_in_all_cases": "functional, HeLa S3", "key": {"Enterovirus C [1]": {"system": "Enterovirus C"}, "Enterovirus C [2]": {"system": "Enterovirus C", "remark": "listed apart in the source"}, "Enterovirus C [3]": {"system": "Enterovirus C", "remark": "listed apart in the source"}, "Enterovirus C [4]": {"system": "Enterovirus C", "remark": "listed apart in the source"}, "Enterovirus C [5]": {"system": "Enterovirus C", "remark": "listed apart in the source"}, "Enterovirus C [6]": {"system": "Enterovirus C", "remark": "listed apart in the source"}}}
{"smiles": "Cc1ncnc2c1ncn2[C@@H]1O[C@H](CO)[C@@H](O)[C@H]1O", "values": [{"measurement": "PFU", "setting": "Enterovirus C [1]", "value": 12}, {"measurement": "PFU", "setting": "Enterovirus C [2]", "value": 22}]}
{"smiles": "Cc1ncnc2c1ccn2[C@@H]1O[C@H](CO)[C@@H](O)[C@H]1O", "values": [{"measurement": "PFU", "setting": "Enterovirus C [3]", "value": 19}, {"measurement": "PFU", "setting": "Enterovirus C [4]", "value": 17}]}
{"smiles": "NC(=O)c1ncn([C@@H]2O[C@H](CO)[C@@H](O)[C@H]2O)n1", "note": "[RIBAVIRIN]", "values": [{"measurement": "PFU", "setting": "Enterovirus C [5]", "value": 150}, {"measurement": "PFU", "setting": "Enterovirus C [6]", "value": ">250"}]}
